Assay results from the supplement of paper PMC10307832.

Each cell line was assayed with COc1cc2nc(N3CCCN(C)CC3)nc(NC3CCN(Cc4ccccc4)CC3)c2cc1OC + COc1cc2c(Oc3ccc(NC(=O)C4(C(=O)Nc5ccc(F)cc5)CC4)cc3F)ccnc2cc1OCCCN1CCOCC1 [Foretinib] (partner 0.25 µM) (assay: relative viability (nuclei count vs DMSO), 5 days (fraction); higher = more cells survive). Settings: first compound 0.2 µM.
Method in brief: (§1)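 After 5 days of treatment, lung cancer cells in 1536-well plates were fixed and stained in a single step (final 0.05% Triton X-100, 1% formaldehyde, 1 ug/ml Hoechst) and their nuclei counted on 4× images. Treatment had been applied by pin tool the day after seeding as one drug alone or as a fixed anchor-drug dose with five library-drug doses (not always all listed) in √10 steps. Relative viability is the nuclei count of treated wells divided by that of vehicle wells, and values are medians of duplicate plates.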

Cell Line	relative viability
NCI-H2342	1.1
NCI-H1623	0.903
NCI-H1650	1.11
EBC-1	0.1
NCI-H1703	0.313
SW 1573	0.844
NCI-H520	0.683
Calu-6	0.867
SK-MES-1	0.842
COR-L23	1.02
COR-L 105	1.06
IA-LM	1.13
ChaGo-K-1	1
A549	0.951
SW 900	0.679
NCI-H2009	1.27
NCI-H661	1.04
SK-LU-1	0.839
NCI-H1299	1.07
NCI-H2228	1.02
NCI-H2023	0.943
NCI-H1563	1.03

Same assay, conditions: first compound 0.6325 µM

Cell Line	relative viability
NCI-H2342	1
NCI-H1623	0.94
NCI-H1650	1.06
EBC-1	0.117
NCI-H1703	0.317
SW 1573	0.974
NCI-H520	0.633
Calu-6	0.865
SK-MES-1	0.926
COR-L23	0.95
COR-L 105	1.27
IA-LM	0.807
ChaGo-K-1	0.929
A549	0.966
SW 900	1.15
NCI-H2009	1.22
NCI-H661	0.972
SK-LU-1	0.79
NCI-H1299	1.07
NCI-H2228	0.711
NCI-H2023	0.834
NCI-H1563	0.944

Same assay, conditions: first compound 2 µM

Cell Line	relative viability
NCI-H2342	1.17
NCI-H1623	0.848
NCI-H1650	1.31
EBC-1	0.114
NCI-H1703	0.412
SW 1573	0.941
NCI-H520	0.622
Calu-6	0.983
SK-MES-1	0.97
COR-L23	0.965
COR-L 105	1.13
IA-LM	1.34
ChaGo-K-1	0.941
A549	0.997
SW 900	0.779
NCI-H2009	1.23
NCI-H661	1.06
SK-LU-1	0.783
NCI-H1299	1.13
NCI-H2228	0.729
NCI-H2023	0.834
NCI-H1563	0.973

Same assay, conditions: first compound 6.325 µM

Cell Line	relative viability
NCI-H2342	1.1
NCI-H1623	0.768
NCI-H1650	0.755
EBC-1	0.107
NCI-H1703	0.448
SW 1573	0.862
NCI-H520	0.598
Calu-6	0.903
SK-MES-1	0.865
COR-L23	0.996
COR-L 105	0.921
IA-LM	1.16
ChaGo-K-1	0.907
A549	0.763
SW 900	0.857
NCI-H2009	1.09
NCI-H661	0.995
SK-LU-1	0.653
NCI-H1299	1.06
NCI-H2228	0.499
NCI-H2023	0.455
NCI-H1563	0.824

Each cell line was assayed with COc1cc2nc(N3CCCN(C)CC3)nc(NC3CCN(Cc4ccccc4)CC3)c2cc1OC + NC(=O)Nc1cc(-c2cccc(F)c2)sc1C(=O)N[C@H]1CCCNC1 [AZD7762] (partner 0.2 µM) in the same assay as above. Settings: first compound 0.2 µM.
Method in brief: as §1

Cell Line	relative viability
NCI-H2342	0.472
NCI-H1703	0.118
ChaGo-K-1	0.911
HCC-44	1.04
NCI-H522	0.901
SW 900	0.62
NCI-H1792	0.778

Same assay, conditions: first compound 0.6325 µM

Cell Line	relative viability
NCI-H2342	0.748
NCI-H1648	0.708
ChaGo-K-1	0.852
HCC-44	0.995
NCI-H522	0.791
SW 900	0.564
NCI-H1792	0.591

Same assay, conditions: first compound 2 µM

Cell Line	relative viability
NCI-H2342	0.652
NCI-H1703	0.125
ChaGo-K-1	0.882
HCC-44	0.994
NCI-H522	0.986
SW 900	0.611
NCI-H1792	0.76

Same assay, conditions: first compound 6.325 µM

Cell Line	relative viability
NCI-H2342	0.497
NCI-H1703	0.184
NCI-H1648	0.68
ChaGo-K-1	0.856
HCC-44	1.01
NCI-H522	0.792
SW 900	0.577
NCI-H1792	0.58

These cell lines were tested with COc1cc2nc(N3CCCN(C)CC3)nc(NC3CCN(Cc4ccccc4)CC3)c2cc1OC + Cc1cc(Nc2cc(N3CCN(C)CC3)nc(Sc3ccc(NC(=O)C4CC4)cc3)n2)n[nH]1 [Tozasertib] (partner 0.1 µM) in the same assay as above. Settings: first compound 0.2 µM.
Method in brief: as §1

Cell Line	relative viability
NCI-H2342	0.503
NCI-H1623	0.432
NCI-H1650	0.482
SW 1573	0.196
NCI-H520	0.405
NCI-H1648	0.491
SK-MES-1	0.882
COR-L23	0.24
COR-L 105	0.412
ChaGo-K-1	0.206
HCC-44	0.973
NCI-H522	0.573
SW 900	0.509
NCI-H2009	0.761
NCI-H661	0.377
SK-LU-1	0.363
NCI-H2228	0.254
NCI-H2023	0.368

Same assay, conditions: first compound 0.6325 µM

Cell Line	relative viability
NCI-H2342	0.659
NCI-H1623	0.45
NCI-H1650	0.483
SW 1573	0.165
NCI-H520	0.405
NCI-H1648	0.527
SK-MES-1	0.912
COR-L23	0.195
COR-L 105	0.429
ChaGo-K-1	0.218
HCC-44	0.922
NCI-H522	0.671
SW 900	0.539
NCI-H2009	0.727
NCI-H661	0.342
SK-LU-1	0.349
NCI-H2228	0.311
NCI-H2023	0.301

Same assay, conditions: first compound 2 µM

Cell Line	relative viability
NCI-H2342	0.57
NCI-H1623	0.442
NCI-H1650	0.576
SW 1573	0.246
NCI-H520	0.437
NCI-H1648	0.508
SK-MES-1	0.852
COR-L23	0.319
COR-L 105	0.385
ChaGo-K-1	0.219
HCC-44	1.25
NCI-H522	0.547
SW 900	0.585
NCI-H2009	0.855
NCI-H661	0.344
SK-LU-1	0.363
NCI-H2228	0.265
NCI-H2023	0.46

Same assay, conditions: first compound 6.325 µM

Cell Line	relative viability
NCI-H2342	0.511
NCI-H1623	0.411
NCI-H1650	0.49
SW 1573	0.128
NCI-H520	0.507
NCI-H1648	0.538
SK-MES-1	0.1
COR-L23	0.457
COR-L 105	0.353
ChaGo-K-1	0.244
HCC-44	1.22
NCI-H522	0.606
SW 900	0.548
NCI-H2009	0.656
NCI-H661	0.363
SK-LU-1	0.352
NCI-H2228	0.257
NCI-H2023	0.109

The cell lines below were run with Cc1cc([C@@H](C)Nc2ccccc2C(=O)O)c2nc(N3CCOCC3)cc(=O)n2c1 [AZD6482] + Cc1nc(NC(=O)N2CCC[C@H]2C(N)=O)sc1-c1ccnc(C(C)(C)C(F)(F)F)c1 [Alpelisib] (partner 2 µM) in the same assay as above. Settings: first compound 0.08 µM.
Method in brief: as §1

Cell Line	relative viability
EBC-1	0.32
NCI-H1703	0.273
SW 1573	0.518
NCI-H520	0.381
Calu-6	0.812
SK-MES-1	0.515
COR-L23	0.461
COR-L 105	0.771
IA-LM	0.638
HCC-44	0.546
A549	0.585
NCI-H2009	0.936
NCI-H661	0.656
NCI-H1299	1.14
NCI-H2228	0.477
NCI-H1792	0.516
NCI-H2023	0.389
NCI-H1563	0.753

Same assay, conditions: first compound 0.253 µM

Cell Line	relative viability
EBC-1	0.346
NCI-H1703	0.179
SW 1573	0.533
NCI-H520	0.287
Calu-6	0.847
SK-MES-1	0.658
COR-L23	0.737
COR-L 105	0.837
IA-LM	0.585
HCC-44	0.596
A549	0.552
NCI-H2009	1.15
NCI-H661	0.454
SK-LU-1	0.89
NCI-H1299	1.17
NCI-H2228	0.589
NCI-H1792	0.518
NCI-H2023	0.427
NCI-H1563	0.703

Same assay, conditions: first compound 0.8 µM

Cell Line	relative viability
EBC-1	0.27
NCI-H1703	0.194
SW 1573	0.47
NCI-H520	0.263
Calu-6	0.873
SK-MES-1	0.459
COR-L23	0.854
COR-L 105	0.784
IA-LM	0.631
HCC-44	0.649
A549	0.43
NCI-H2009	1.04
NCI-H661	0.486
SK-LU-1	0.892
NCI-H1299	1.27
NCI-H2228	0.578
NCI-H1792	0.67
NCI-H2023	0.449
NCI-H1563	0.672

Same assay, conditions: first compound 2.53 µM

Cell Line	relative viability
EBC-1	0.177
NCI-H1703	0.167
SW 1573	0.303
Calu-6	0.75
SK-MES-1	0.269
COR-L23	0.494
COR-L 105	0.517
IA-LM	0.313
HCC-44	0.505
A549	0.275
NCI-H2009	0.484
SK-LU-1	0.76
NCI-H1299	1.04
NCI-H2228	0.397
NCI-H1792	0.393
NCI-H2023	0.267
NCI-H1563	0.661

Same assay, conditions: first compound 8 µM

Cell Line	relative viability
EBC-1	0.299
NCI-H1703	0.231
SW 1573	0.407
NCI-H520	0.353
Calu-6	0.926
SK-MES-1	0.433
COR-L23	0.76
COR-L 105	0.728
IA-LM	0.809
HCC-44	0.435
A549	0.361
NCI-H2009	0.985
NCI-H661	0.419
SK-LU-1	0.76
NCI-H1299	1.28
NCI-H2228	0.539
NCI-H1792	0.359
NCI-H2023	0.32
NCI-H1563	0.688
